Reference: patent US12590094B2, “Compounds for the treatment of neurodegenerative and metabolic disorders” (UNIVERSITY OF FLORIDA RESEARCH FOUNDATION, INCORPORATED, priority 2019, dated 2026)
“And” between values parts separate entries of the source, which are not always exact repeats. Identical values can stand only once. “Also recorded” adds a separate entry of the source. Like-named read-outs stand apart in the source and are kept apart here.

What was measured:
Cells exposed to TPrP [1] = assay: cells; details: read-out: Viability EC50
Cells exposed to TPrP [2] = details: for EC50: read-out: Viability EC50
PARP-1 = PARP-1 (Homo sapiens, UniProt P09874); assay: PARP1 chemiluminescent assay kit (BPS Bioscience); type: biochemical; details: FIG. 15
Description: ABT-888 is a known PARP1 inhibitor serving as pharmacological control for the assay. […] The assay was performed using the BPS Bioscience PARP1 chemiluminescent assay kit according to the manufacturer's instructions.

[3] = system: Human stem cell-derived neurons; assay: Cellular PD model, α-synuclein PFFs-seeded human neurons; type: cell-based; details: 2 μM, PFFs 50 μg/ml, 17 days
Description: Human stem cell-derived neurons (30 days post-differentiation) were seeded with 50 μg/ml preformed α-synuclein fibrils (PFFs), treated with DMCM-10049 at 2 μM or vehicle, and fixed 17 days later for analysis. Control cells were not PFFs-seeded. A: Dendritic spines were labeled with the marker F-actin using Phalloidin-iFluor 488 (Abcam). B: pα-syn* (red, antibody GTX50222, GeneTex)+DAPI (blue) staining. Quantification was done using ImageJ (NIH), statistical analysis with one way ANOVA (Prism7). Mean values and SDs of 8 images (A) or 6 images (B) per each condition are shown. ****P<0.0001; ***P<0.001; ns=non significant.

GABAA R subtypes = details: relative to DMCM; cited from earlier work
[4] = system: PK1 neuroblastoma cells treated with TPrP; assay: cells; type: cell-based; details: for EC50: Neuroblastoma cell
[5] = system: Murine stem-cell derived neurons; assay: Cellular PD/synucleinopathy model, PFFs-seeded murine neurons, neurite length; type: cell-based; details: FIG. 14
Description: Murine stem-cell derived neurons (8 days post-differentiation) were seeded with PFFs (A, B: 4 μg/ml; C, D: 3 μg/ml) and treated with the test compounds at the dose indicated, or with the vehicle DMSO, during the last 2 days of differentiation. Control cells were not PFFs-seeded. Cells were photographed by phase contrast microscopy. Neurite length was quantified using the NeuronJ plugin of ImageJ (NIH), statistical analysis was done in pairs by comparing compound-treated cells with the DMSO control (student's t-test, Prism8). Mean values and SEMs of 4 fields per each condition are shown. Each field contained approximately 50 to 100 neurons. Images shown correspond to a representative area of one field. ****P<0.0001; ***P<0.001; **P<0.01; *P<0.05; ns=not significant.

[6] = system: PK1 neuroblastoma cells treated with TPrP; assay: cells; type: cell-based; details: Neuroblastoma cell
NAMPT = biological target: T1, NAMPT (Homo sapiens, UniProt P43490); assay: Colorimetric NAMPT activity assay (Abcam, ab221819); type: biochemical; details: tested at 5 μM or 20 μM
T1 construct: purchased Abcam ab221819
Description: Compounds were tested in a colorimetric NAMPT activity assay (Abcam, ab221819). Each data point represents a duplicate sample. […] Compounds were tested at 5 μM (A) or 20 μM (B).

[7] = system: PK1 cells treated with TPrP; type: cell-based
[8] = system: Primary mouse cortical neurons; type: cell-based
VEGFR-1 [9] = biological target: T2, VEGFR-1 (Homo sapiens, UniProt P17948); assay: VEGFR inhibition of vatalanib analogs; type: biochemical; details: relative to vatalanib
VEGFR-1 [10] = biological target: T2, VEGFR-1; details: subtype not given; cited from earlier work
[11] = in vivo; cited from earlier work
[12] = system: PK1 cells exposed to TPrP; type: cell-based
[13] = read-out: EC50 (TPrP toxicity rescue / neuroprotection)

Chain of PARP-1 (P09874 whole entry): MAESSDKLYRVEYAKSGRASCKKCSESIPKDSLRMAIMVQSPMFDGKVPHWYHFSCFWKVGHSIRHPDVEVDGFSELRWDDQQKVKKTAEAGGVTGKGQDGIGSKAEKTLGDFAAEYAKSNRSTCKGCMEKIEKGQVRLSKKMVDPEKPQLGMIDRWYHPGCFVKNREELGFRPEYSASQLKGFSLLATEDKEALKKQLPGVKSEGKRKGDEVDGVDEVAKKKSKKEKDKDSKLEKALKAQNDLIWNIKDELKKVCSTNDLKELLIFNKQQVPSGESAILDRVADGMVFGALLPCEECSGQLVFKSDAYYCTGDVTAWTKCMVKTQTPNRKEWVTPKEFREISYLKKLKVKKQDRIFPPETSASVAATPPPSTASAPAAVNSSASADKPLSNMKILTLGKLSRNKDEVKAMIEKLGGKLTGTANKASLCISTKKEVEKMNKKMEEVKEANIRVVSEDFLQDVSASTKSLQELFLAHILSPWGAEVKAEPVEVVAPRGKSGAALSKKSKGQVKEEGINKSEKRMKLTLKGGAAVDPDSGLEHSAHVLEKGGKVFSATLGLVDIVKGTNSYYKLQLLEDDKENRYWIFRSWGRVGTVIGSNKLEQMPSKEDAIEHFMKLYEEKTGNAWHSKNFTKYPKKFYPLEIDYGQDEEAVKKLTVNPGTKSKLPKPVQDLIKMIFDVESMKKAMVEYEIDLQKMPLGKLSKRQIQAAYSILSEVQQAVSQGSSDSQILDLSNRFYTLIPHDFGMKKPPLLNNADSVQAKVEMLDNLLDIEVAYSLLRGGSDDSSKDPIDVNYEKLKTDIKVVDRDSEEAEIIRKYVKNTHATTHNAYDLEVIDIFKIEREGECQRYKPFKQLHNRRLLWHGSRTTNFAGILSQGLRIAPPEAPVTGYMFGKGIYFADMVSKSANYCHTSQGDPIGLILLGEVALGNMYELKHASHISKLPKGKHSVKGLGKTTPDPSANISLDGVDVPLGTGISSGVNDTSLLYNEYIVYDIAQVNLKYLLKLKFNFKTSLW
T1 sequence (P43490 whole entry): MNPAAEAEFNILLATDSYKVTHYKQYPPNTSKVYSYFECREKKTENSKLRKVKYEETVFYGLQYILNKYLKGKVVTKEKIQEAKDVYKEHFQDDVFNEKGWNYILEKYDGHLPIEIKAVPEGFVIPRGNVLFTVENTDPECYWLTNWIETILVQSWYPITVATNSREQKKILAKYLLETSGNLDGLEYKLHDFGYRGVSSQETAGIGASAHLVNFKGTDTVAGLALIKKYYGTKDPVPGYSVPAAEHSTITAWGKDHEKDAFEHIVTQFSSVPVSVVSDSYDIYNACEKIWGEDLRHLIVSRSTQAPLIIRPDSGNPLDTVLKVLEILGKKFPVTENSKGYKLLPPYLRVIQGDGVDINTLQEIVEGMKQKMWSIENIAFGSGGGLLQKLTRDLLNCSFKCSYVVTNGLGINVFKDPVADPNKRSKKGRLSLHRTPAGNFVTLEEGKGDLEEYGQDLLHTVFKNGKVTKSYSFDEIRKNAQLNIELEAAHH
T2 sequence (P17948 27-1338, species assumed): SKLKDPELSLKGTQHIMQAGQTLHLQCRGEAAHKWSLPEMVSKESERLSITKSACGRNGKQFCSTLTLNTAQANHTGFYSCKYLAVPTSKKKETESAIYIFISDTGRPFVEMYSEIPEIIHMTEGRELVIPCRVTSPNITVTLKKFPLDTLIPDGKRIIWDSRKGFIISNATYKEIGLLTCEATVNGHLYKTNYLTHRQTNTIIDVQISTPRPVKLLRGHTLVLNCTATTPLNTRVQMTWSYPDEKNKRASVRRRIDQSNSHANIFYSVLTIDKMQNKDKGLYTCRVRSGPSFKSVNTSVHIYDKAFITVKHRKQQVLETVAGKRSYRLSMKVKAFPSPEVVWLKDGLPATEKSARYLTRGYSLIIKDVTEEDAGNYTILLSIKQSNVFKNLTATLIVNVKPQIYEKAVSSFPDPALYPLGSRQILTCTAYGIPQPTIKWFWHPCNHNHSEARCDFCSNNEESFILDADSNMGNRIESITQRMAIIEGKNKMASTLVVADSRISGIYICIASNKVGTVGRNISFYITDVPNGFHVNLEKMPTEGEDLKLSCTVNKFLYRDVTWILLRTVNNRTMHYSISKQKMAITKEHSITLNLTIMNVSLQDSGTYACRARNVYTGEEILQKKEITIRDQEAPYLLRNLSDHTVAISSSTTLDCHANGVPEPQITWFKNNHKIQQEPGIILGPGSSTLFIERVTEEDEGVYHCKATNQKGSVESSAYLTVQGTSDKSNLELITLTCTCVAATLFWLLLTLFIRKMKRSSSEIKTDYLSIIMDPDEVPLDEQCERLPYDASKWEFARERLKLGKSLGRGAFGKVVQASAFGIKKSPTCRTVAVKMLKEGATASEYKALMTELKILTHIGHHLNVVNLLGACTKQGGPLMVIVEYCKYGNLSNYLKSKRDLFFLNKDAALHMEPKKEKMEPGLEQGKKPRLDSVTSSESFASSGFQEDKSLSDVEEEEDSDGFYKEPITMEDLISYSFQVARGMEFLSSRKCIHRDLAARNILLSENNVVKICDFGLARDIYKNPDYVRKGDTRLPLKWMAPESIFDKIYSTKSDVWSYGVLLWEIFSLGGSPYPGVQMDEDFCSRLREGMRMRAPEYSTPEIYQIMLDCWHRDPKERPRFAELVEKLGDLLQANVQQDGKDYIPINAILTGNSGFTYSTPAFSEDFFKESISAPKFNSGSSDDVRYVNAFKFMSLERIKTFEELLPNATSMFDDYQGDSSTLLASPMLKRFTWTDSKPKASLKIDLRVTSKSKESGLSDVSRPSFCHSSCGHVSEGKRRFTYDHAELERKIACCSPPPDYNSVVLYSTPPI

Row | Molecule | EC50 ([4]; read-out: Viability EC50) | loss of neurites induced by PFFs exposure [5] | EC50 ([6]; read-out: NAD EC50) | Activation of NAMPT (NAMPT) | other results
1 | CCc1c(C(=O)N[C@H]2CC[C@@H](N)CC2)ncc2[nH]c3cc(OC)c(OC)cc3c12 [DMCM-8137] | – | – | – | – | EC50 (Cells exposed to TPrP [1]): ~500 nM; neuroprotection in the TPrP neuroprotection assay (Cells exposed to TPrP [2]): neuroprotective
2 | CCc1c(C(=O)NN)ncc2[nH]c3cc(OC)c(OC)cc3c12 [DMCM-10049] | – | – | – | – | PARP-1 inhibition (PARP-1): absence of PARP-1 inhibition; dendritic spines (F-actin) [3]: preserves dendritic spines; pα-syn* levels [3]: reduces pα-syn* levels; EC50 (Cells exposed to TPrP [1]): ~500 nM; reduced potency for most GABAA R subtypes (GABAA R subtypes): over 100 ×
3 | O=c1cc(-c2ccc(O)cc2)oc2cc(O)cc(O)c12 [SR1-75663, 5,7-dihydroxy-2-(4-hydroxyphenyl)-4H-chromen-4-one] | 1700 nM | prevent loss of neurites | > 10000 nM | – | –
4 | CCc1c(C(=O)OC)ncc2[nH]c3cc(OC)c(OC)cc3c12 [SR1-75869, DMCM, reference compound] | 120 nM | – | 749 nM | not | excessive protein ADP ribosylation induced by TPrP [7]: mitigates excessive protein ADP ribosylation; neuritic breakdown and neuronal vacuolation induced by TPrP [8]: suppressed; rescue of TPrP-induced toxicity (cell viability) [8]: rescues TPrP-induced toxicity
5 | Cc1ccc(-c2nnc3c4ccccc4c(C)nn23)cc1S(=O)(=O)NC(C)(C)CO [SR1-115259] | 5.1 nM | prevent loss of neurites | 167 nM | not | –
6 | CC(=O)c1cccc(Nc2nnc(Cc3ccncc3)c3ccccc23)c1 [SR1-134005] | 6.3 nM | – | 105 nM | Activation of NAMPT | PARP-1 inhibition (PARP-1): absence of PARP-1 inhibition; fold more potent than vatalanib as a neuroprotective agent [4]: more than 6 fold; EC50 [4, 13]: 6.3 nM; fold less potent than vatalanib at VEGFR-1 (VEGFR-1 [9]): 13 fold; EC50 (Cells exposed to TPrP [1]): 20 nM
7 | COc1cc(Nc2nnc(Cc3ccncc3)c3ccccc23)cc(OC)c1 [SR1-151915] | 71.4 nM | – | 280 nM | – | EC50 [4, 13]: 71.4 nM; IC50 (VEGFR-1 [10]): > 1000 nM
8 | O=C(NCCCn1ccnc1)c1cnn2c(C(F)(F)F)cc(-c3ccccc3)nc12 [SR1-293229] | 1.9 nM | prevent loss of neurites | 6.8 nM | not | PARP-1 inhibition (PARP-1): absence of PARP-1 inhibition; EC50 (Cells exposed to TPrP [1]): 1.5 nM; EC50 (Cells exposed to TPrP [2]): 2 nM
9 | NS(=O)(=O)c1ccc(Nc2nc(-c3ccncc3)cs2)cc1 [SR1-477186] | 26 nM | prevent loss of neurites | 365 nM | not | –
10 | Cc1nc(C)c(-c2csc(Nc3ccc(S(N)(=O)=O)cc3)n2)s1 [SR1-477302] | 14 nM | – | 103 nM | – | EC50 (Cells exposed to TPrP [2]): 18 nM and 30 nM
11 | COc1ccc(-c2cc(C(F)(F)F)n3ncc(C(=O)NCCCn4ccnc4)c3n2)cc1 [SR3-5315] | – | – | – | – | EC50 (Cells exposed to TPrP [2]): > 16 nM
12 | Cc1ccc(-c2nnc3c4ccccc4c(C)nn23)cc1S(=O)(=O)N1CCOCC1 [SR5-22843] | 30 nM | – | 219 nM | – | PARP-1 inhibition (PARP-1): absence of PARP-1 inhibition
13 | Cc1ccc(-c2cc(C(F)F)n3ncc(C(=O)NCCCn4ccnc4)c3n2)cc1 [SR-024088] | – | – | – | – | Viability EC50: % effective (Cells exposed to TPrP [2]; at 1 nM): >80% effective at 1 nM
14 | Cc1nc(C)c(-c2csc(Nc3ccc(S(N)(=O)=O)cc3)n2)s1 [SR-27807] | – | – | – | – | EC50 (Cells exposed to TPrP [2]): 50 nM
15 | COc1ccc(-c2cc(=O)c3c(OC)c(OC)c(OC)c(OC)c3o2)cc1OC [SR-01000712262, 2-(3,4-dimethoxyphenyl)-5,6,7,8-tetramethoxy-4H-chromen-4-one] | 580 nM | prevent loss of neurites | 664 nM | not | PARP-1 inhibition (PARP-1): absence of PARP-1 inhibition
16 | Clc1ccc(Nc2nnc(Cc3ccncc3)c3ccccc23)cc1 [Vatalanib, reference compound] | 40 nM | prevent loss of neurites | 195 nM | – | EC50 [4, 13]: 39.9 nM; oral bioavailability [11]: high; EC50 (Cells exposed to TPrP [1]): 45 nM; EC50 ([6]; read-out: EC50 (NAD assay)): 195 nM
17 | CCOC(=O)c1ncn2c1CN(C)C(=O)c1cc(F)ccc1-2 [flumazenil] | – | – | – | – | protection against TPrP toxicity [12]: neither rescued TPrP-induced toxicity; also recorded: absence of protection
18 | NAD | – | – | – | – | neuritic breakdown and neuronal vacuolation induced by TPrP [8]: suppressed
